What was measured:
IKKα/β subunit = assay: TNFα induced phosphorylation of IKKα/β in sv-VSMCs, western blot; type: cell-based, human; conditions: 100 nm, 30 min; TNFα 10 ng/ml 15 min
Method: Mar-1. VSMCs and ECs were lysed in buffer (20 mM Tris-Hcl, 137 mM NaCl, 10% Glycerol, 1% NP-40) with protease and phosphatase inhibitors (Halt inhibitor capsules, Pierce, Inc) by sonication on ice. The lysates were instantly snap frozen in liquid nitrogen and thawed back later for western blotting. After centrifugation (15,000 g for 20 minutes), the whole cell extract (supernatant) was collected and was heated at 100° C. in Laemlli buffer for 6 minutes. Lysates were run on Mini-Protean TGX gels
(Biorad) and transferred on PVDF membranes which were probed with appropriate primary and secondary antibodies and visualized for quantitation using q-dot nanocrystals (Life Technologies, Inc).
Cells were pretreated with 100 nm of 7S/7R-Maresin-1 for 30 min, followed by TNFα (10 ng/ml for VSMC and 1 ng/ml for EC) for 15 min. Whole cell lysates were collected and probed for pan and phospho IKK (Cell Signaling Inc.).
FIG. 18. IKK-phospho and total IKK western blotting image is representative of three independent experiments. Bar graph represents net quantitative densitometry analysis. N=3. P≤0.05, One-way ANOVA with Dunnett's post hoc test. *: P≤0.05 compared to control, unpaired t-test. †: P≤0.05 compared to TNFα, unpaired t-test. Error bars: SEM.

[1] = system: human saphenous vein vascular smooth muscle (sv-VSMC) cells; assay: TNFα induced superoxide production (DHE) in sv-VSMC (Maresin-1); type: cell-based; conditions: 100 nM; TNFα 10 ng/ml 4 hr
Method: Mar-1. Cells were grown in 8-well chamber slides at a density of 15000 cells/well for 2 days for VSMCs and 50000 cells/well for 2 days for ECs in a 96 well plate. After treatments, cells were incubated with dihydroethidium (DHE, 3 μM, Invitrogen) or CellRox (Invitrogen Inc, 5 μM for ECs) in media for 30 minutes at 37° C. in a humidified chamber with 5% CO2 protected from light. DAPI nuclear counter staining was utilized for DHE staining. For DHE, fluorescence was detected with TRITC filter allowing the detection of the DHE emission wavelength of 590-620 nm. Fluorescence quantitation was performed using ImageJ analysis software. For ECs, fluorescence measurements were taken using a Spectramax M2e plate reader.
FIGS. 13A-13D. Representative merged images of DHE staining, counterstained with DAPI. (A), Negative control. (B), TNFα at 10 ng/ml for 4 hr. […] (E) Quantitative comparison of DHE staining intensity in the nucleus of human saphenous vein vascular smooth muscle (sv-VSMC) cells, treated with TNFα and 7S and 7R-Maresin-1 with and without pertussis toxin. (F) Quantitative comparison of cellular ROS production by CellRox (Life technologies, Carlsbad, Calif.) in human saphenous vein endothelial (EC) cells treated with TNFα (1 ng/nil) and 7S-Maresin-1 (N>=3). […]

rabbit femoral artery = assay: Rabbit femoral artery balloon injury, neointimal hyperplasia at 28 days; type: in vivo, New Zealand White Rabbits; conditions: 10 nM local; 28 days after injury; vehicle 0.38±0.04; P=0.002
Method: All animal experiments are performed under a protocol approved by University of California San Francisco Animal Care Committee. New Zealand White Rabbits (NZWR, Western Oregon Rabbit Company, Philomath, Oreg.) weighing 3 to 5 kg and maintained on a normal chow diet are used in all experiments. Animals are anesthetized for surgical procedures with intramuscular injection of ketamine (25 mg/kg) and xylazine (5 mg/kg), and maintained with inhalation of isoflurane. The balloon injury model is made as described by Conte et al. “Efficient repopulation of denuded rabbit arteries with autologous genetically modified endothelial cells,” Circulation. 1994; 89:2161-2169. Rabbits undergo bilateral external iliac and femoral artery injury with 2F Fogarty balloon catheter (Applied Medical Resources Corp. Rancho Santa Margarita, Calif.). After balloon injury RvD2 (10 nM, Cayman chemical, Ann Arbor, Mich.) is infused to luminal area of the right femoral artery and control vehicle (normal saline with 0.1% ethanol) is infused to the left femoral artery, and then left undisturbed for 20 minutes. For evaluation of acute effects the rabbits are euthanized at 3 days after injury by intravenous overdose of sodium Nembutal. The femoral arteries are harvested and cryosection is made for immunohistochemistry, and total RNA from treated and control tissue is isolated. […]

CC/C=C\C/C=C\C[C@H](O)\C=C/C=C/C=C/[C@@H](O)C/C=C\CCC(=O)O [7S-Maresin-1, 7S,14R-dihydroxydocosa-4Z,8E,10Z,12Z,16Z,19Z-hexaenoic acid]
TNFα induced phosphorylation of IKKα/β subunit in human sv-VSMCs (IKKα/β subunit): Reduce | TNF-α-induced superoxide production in VSMC [1]: significantly reduced

CC/C=C\C[C@H](O)[C@H](O)/C=C/C=C/C=C\C=C\[C@@H](O)C/C=C\CCC(=O)O [RvD2, resolvin D2]
neointimal area (rabbit femoral artery): 0.27±0.03 mm^2

— patent publication US10111847B2, “Compounds and methods for modulating vascular injury” (The Regents of the University of California, priority 2012, dated 2018)
